Patent US20210134398A1, “Combinatorial Chemistry Computational System and Enhanced Selection Method” (Southern Methodist University, priority 2019, published 2021)
Entries after “also recorded” stand apart in the source; their conditions may differ. Like-named read-outs stand apart in the source and are kept apart here.

Tests used:
[1] = target: T1, P-gp-catalyzed transport of calcein AM in DU145TXR cells (Homo sapiens, UniProt P08183); assay: Calcein AM accumulation assay; type: cell-based; details: after 6-hour pre-incubation, compared to parental 29
T1 construct: DU145 human prostate cancer cells^52 as well as the multidrug resistant sub-line, DU145TXR; endogenous in cells; host or cells: DU145TXR (paclitaxel-selected sub-line of human DU145 prostate cancer cells)
Experimental: Accumulation and cellular retention of calcein AM in P-gp overexpressing prostate cancer cells upon incubation with Group 1 SMU-29 variants. Calcein AM accumulation assays have been used by us previously to evaluate P-gp-substrate accumulation in real time in the presence or absence of P-gp inhibitors^28. For these assays, P-gp overexpressing DU145TXR cells were incubated with the respective inhibitors in the presence of the P-gp substrate, calcein AM. Inhibition of P-gp leads to cellular accumulation of calcein AM and to cleavage of its acetoxymethyl ester groups, resulting in the generation of the highly fluorescent compound, calcein. The anionic calcein is not a substrate of P-gp and remains in the cells. In these assays, the relative fluorescence of cellular calcein was measured over time and the results of these assays are shown in FIG. 13A. […]
Calcein AM assay. To assess inhibition of P-gp-catalyzed transport of the P-gp pump substrate, calcein AM, DU145TXR cells were seeded in 96 wells plates and allowed to grow in complete medium until confluency was reached. Medium was removed, and cells were treated […] P-gp inhibitory compounds and 1 μg/mL calcein AM (Life Technologies, OR) and diluted into phenol red free RPMI 1640 media. To study the effect of pre-incubation of compounds, cells were treated with just P-gp inhibitory compounds and incubated at 37° C. for six hours before adding calcein AM. Fluorescence excitation at 485 nm with a 20 nm gate and at emission at 535 nm with a 20 nm gate was measured using a BioTek Cytation 5 imaging multi-mode reader (Bio-Tek, Winooski, Vt.) over 60 minutes in 20 minute intervals. DMSO was used as vehicle. Results were plotted as the mean with standard deviation (SD) of six replicates per concentration and are representative of at least two independent experiments.

[2] = target: T1, P-gp-catalyzed transport of calcein AM in DU145TXR cells; assay: Calcein AM accumulation assay; type: cell-based; details: without pre-incubation, compared to parental 29, 5 μM stated for Group 2
DU145TXR = assay: Cell viability, toxicity of the compounds themselves; type: cell-based; details: absence of chemotherapeutic or very low paclitaxel
Experimental: It should be noted that compounds 541 and 551 were not assessed in these latter experiments.
MTT cell viability assay. Cells were trypsinized from monolayers and seeded with 3000 cells in 150 μL of complete medium in a 96 well plate. After 24 hours, cells were treated for 48 hours with paclitaxel (Acros Organics, NJ) and/or P-gp inhibitory compounds dissolved in DMSO, or DMSO controls. All additions were diluted into complete medium. After 48 hours of treatment, MTT assays were performed as described^41 using 5 mg/mL of MTT (Acros Organics, NJ) solution prepared in PBS (137 mM NaCl, 2.7 mM KCl, 10 mM Na2HPO4, 1.8 mM KH2PO4, pH 7.4). After 4 hours of incubation with MTT, the media was removed and the formazan crystals were dissolved in 100 μL of DMSO. The absorbance at 570 nm was then measured using a BioTek Cytation 5 imaging multi-mode reader (Bio-Tek, Winooski, Vt.). Percent viability was calculated using DMSO treated cells as representative for 100% viability, according to Equation 1. Background absorbance was determined using MTT and complete medium without cells and subtracted from all the test values. Equation 1: […]

[3] = target: T2, cysteineless mouse P-glycoprotein (Mus musculus, UniProt P21447, C1070A/C1121A/C1223A/C133A/C427A/C638A/C669A/C713A/C952A); details: in the presence of 29, from Brewer et al. (2014), cited from earlier work
T2 construct: made in house; host or cells: Pichia pastoris
T2 sequence (P21447 whole entry C133A/C427A/C638A/C669A/C713A/C952A/C1070A/C1121A/C1223A): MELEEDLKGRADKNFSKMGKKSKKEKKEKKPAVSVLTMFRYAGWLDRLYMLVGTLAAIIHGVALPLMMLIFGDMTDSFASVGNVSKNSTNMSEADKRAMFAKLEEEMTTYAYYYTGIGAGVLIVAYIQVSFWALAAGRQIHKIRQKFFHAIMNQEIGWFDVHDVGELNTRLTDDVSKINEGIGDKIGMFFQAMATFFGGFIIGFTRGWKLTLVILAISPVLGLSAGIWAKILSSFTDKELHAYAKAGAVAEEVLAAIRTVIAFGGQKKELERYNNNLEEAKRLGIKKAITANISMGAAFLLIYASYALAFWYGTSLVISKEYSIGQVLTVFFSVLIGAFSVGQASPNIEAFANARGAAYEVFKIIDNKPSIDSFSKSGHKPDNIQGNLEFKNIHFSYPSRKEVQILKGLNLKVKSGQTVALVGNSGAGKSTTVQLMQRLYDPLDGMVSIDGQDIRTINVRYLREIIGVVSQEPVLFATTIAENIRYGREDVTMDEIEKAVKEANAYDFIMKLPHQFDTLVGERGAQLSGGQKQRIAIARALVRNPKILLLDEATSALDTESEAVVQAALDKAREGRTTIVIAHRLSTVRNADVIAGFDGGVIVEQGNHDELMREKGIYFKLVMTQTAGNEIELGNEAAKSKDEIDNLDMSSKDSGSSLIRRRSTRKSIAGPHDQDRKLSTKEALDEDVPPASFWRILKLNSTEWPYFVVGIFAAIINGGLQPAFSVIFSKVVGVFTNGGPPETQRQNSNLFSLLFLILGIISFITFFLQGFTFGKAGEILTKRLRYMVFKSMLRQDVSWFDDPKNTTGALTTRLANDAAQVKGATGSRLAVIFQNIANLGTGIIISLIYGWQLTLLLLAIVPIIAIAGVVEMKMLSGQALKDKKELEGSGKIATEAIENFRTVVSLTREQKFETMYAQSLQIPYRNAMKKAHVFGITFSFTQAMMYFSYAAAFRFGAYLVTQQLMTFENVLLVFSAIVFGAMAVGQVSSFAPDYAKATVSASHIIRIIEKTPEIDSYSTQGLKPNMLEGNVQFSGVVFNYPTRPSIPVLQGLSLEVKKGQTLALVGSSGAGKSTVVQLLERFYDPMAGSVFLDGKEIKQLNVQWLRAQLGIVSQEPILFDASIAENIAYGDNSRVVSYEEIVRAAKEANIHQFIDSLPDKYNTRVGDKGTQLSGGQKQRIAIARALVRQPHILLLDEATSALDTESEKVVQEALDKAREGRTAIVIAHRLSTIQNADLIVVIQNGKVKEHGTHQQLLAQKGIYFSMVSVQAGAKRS

T1 sequence (P08183 whole entry): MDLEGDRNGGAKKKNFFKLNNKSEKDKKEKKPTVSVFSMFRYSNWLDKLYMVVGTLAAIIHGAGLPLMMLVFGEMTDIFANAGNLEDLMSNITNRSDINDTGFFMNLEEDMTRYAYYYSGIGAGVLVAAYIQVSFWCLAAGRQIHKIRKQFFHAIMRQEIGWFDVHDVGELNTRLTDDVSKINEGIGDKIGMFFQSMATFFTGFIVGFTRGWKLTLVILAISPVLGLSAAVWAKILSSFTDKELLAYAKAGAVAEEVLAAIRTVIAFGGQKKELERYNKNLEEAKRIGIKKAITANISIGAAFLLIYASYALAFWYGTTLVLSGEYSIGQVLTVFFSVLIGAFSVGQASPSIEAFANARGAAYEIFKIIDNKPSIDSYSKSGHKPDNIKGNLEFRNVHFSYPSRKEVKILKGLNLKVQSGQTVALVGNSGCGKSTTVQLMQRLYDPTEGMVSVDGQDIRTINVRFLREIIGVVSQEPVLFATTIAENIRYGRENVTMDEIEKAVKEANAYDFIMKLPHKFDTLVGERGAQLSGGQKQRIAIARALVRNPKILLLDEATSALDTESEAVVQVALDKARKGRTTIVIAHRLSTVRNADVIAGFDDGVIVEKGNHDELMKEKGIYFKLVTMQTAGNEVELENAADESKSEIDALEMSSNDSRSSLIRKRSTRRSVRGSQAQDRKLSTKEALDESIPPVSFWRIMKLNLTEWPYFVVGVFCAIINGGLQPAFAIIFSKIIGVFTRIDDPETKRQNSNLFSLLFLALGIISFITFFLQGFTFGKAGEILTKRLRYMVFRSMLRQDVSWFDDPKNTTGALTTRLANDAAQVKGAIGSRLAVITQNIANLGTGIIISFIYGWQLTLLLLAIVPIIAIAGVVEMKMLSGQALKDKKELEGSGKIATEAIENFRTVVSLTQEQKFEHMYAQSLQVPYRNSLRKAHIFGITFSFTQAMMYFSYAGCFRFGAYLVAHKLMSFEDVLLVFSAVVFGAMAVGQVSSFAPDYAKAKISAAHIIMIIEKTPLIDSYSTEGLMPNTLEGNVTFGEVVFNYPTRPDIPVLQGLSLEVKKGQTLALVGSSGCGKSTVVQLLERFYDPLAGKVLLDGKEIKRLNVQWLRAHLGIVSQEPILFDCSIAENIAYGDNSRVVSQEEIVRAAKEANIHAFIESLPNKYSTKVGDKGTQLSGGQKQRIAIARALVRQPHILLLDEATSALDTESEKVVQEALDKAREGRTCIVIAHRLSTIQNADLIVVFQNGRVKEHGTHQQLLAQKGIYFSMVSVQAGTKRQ

Row | Calcein accumulation in DU145TXR (in words) [1] | SMILES | Calcein accumulation in DU145TXR (in words) [2] | further results
1 | remained strongest | Cc1cc(C)c(-c2cc(NC(=O)CSCC(=O)Nc3ccc4ncsc4c3)n(-c3ccccc3)n2)cc1C [29-255, 2-({[(1,3-benzothiazol-6-yl)carbamoyl]methyl}sulfanyl)-N-[1-phenyl-3-(2,4,5 trimethylphenyl)-1H-pyrazol-5-yl]acetamide] | considerably increased calcein accumulation | 
2 | increased calcein accumulation | Cc1cc(C)c(-c2cc(NC(=O)CSCC(=O)NC34CC5CC(CC(C5)C3)C4)n(-c3ccccc3)n2)cc1C [29-278, 2-({[(adamantan-1-yl)carbamoyl]methyl}sulfanyl)-N-[1-phenyl-3-(2,4,5-trimethylphenyl)-1H-pyrazol-5-yl]acetamide] | less calcein accumulation than the parental compound | Calcein accumulation in DU145TXR (in words) ([1]; listed as 278): comparable to 29
3 | comparable to 29 | Cc1cc(C)c(-c2cc(NC(=O)CSCC(=O)NCc3ccc(F)cc3)n(-c3ccccc3)n2)cc1C [29-286] | comparable to 29 | 
4 | equivalent to 29 in efficacy | Cc1cc(C)c(-c2cc(NC(=O)CSc3cccc(NC(=O)c4cncc(Br)c4)c3)n(-c3ccccc3)n2)cc1C [29-551, 5-bromo-N-(3-((2-oxo-2-((1-phenyl-3-(2,4,5-trimethylphenyl)-1H-pyrazol-5-yl)amino)ethyl)thio)phenyl)nicotinamide] | marginally higher calcein accumulation than parental compound 29 | 

The remaining lines, values behind:

Row | SMILES | Calcein accumulation in DU145TXR (in words) [1] | Calcein accumulation in DU145TXR (in words) [2] | further results
5 | COc1cc(NC(=O)CSCC(=O)Nc2cc(-c3cc(C)c(C)cc3C)nn2-c2ccccc2)cc(OC)c1OC [29-238, N-[1-phenyl-3-(2,4,5-trimethylphenyl)-1H-pyrazol-5-yl]-2-({[(3,4,5-trimethoxyphenyl)carbamoyl]methyl}sulfanyl)acetamide] | remained strongest | considerably increased calcein accumulation | 
6 | Cc1cc(C)c(-c2cc(NC(=O)CSCC(=O)NC(c3ccccc3)c3ccccc3)n(-c3ccccc3)n2)cc1C [29-280, N-(diphenylmethyl)-2-[({[1-phenyl-3-(2,4,5-trimethylphenyl)-1H-pyrazol-5-yl]carbamoyl)methyl}sulfanyl]acetamide] | comparable to 29 | less calcein accumulation than the parental compound | Toxicity of the compound to DU145TXR cells (DU145TXR): seemed to exhibit some toxicity
7 | Cc1cc(C)c(-c2cc(NC(=O)CSc3nnc4c(n3)[nH]c3ccccc34)n(-c3ccccc3)n2)cc1C [29-541, 2-((5H-[1,2,4]triazino[5,6-b]indol-3-yl)thio)-N-(1-phenyl-3-(2,4,5-trimethylphenyl)-1H-pyrazol-5-yl)acetamide] |  |  | Toxicity of the compound to DU145TXR cells (DU145TXR): showed some toxicity; Calcein accumulation in DU145TXR (in words) ([1]; listed as 541): exceeded 29 significantly; also recorded: exceeded 29 upon preincubation; Calcein accumulation in DU145TXR (in words) ([2]; listed as 541): performed relatively equally to 29; also recorded: performed similar to the parental compound
8 | Cc1cc(C)c(-c2cc(NC(=O)CSc3nnc(C4CC4)[nH]3)n(-c3ccccc3)n2)cc1C [compound 29, reference compound] |  |  | Effect on SL-ANP binding [3]: did not affect the binding; Effect on SL-ANP binding ([3]; listed as SMU29): no
